Assay results reported in US8802895B2, “Amide derivatives of benzene-sulfonanilide, pharmaceutical composition thereof and method for cancer treatment using the same” (Cleveland State University, priority 2010, dated 2014).

Experiments:
OVCAR-4 = experiment: NCIDTP 60 cancer cell lines screening, Ovarian Cancer panel; format: cell-based
[1] = tested on: HT29 colon cancer xenograft; experiment: In vivo study, HT29 colon cancer xenograft model (FIG. 11); set-up: species or system BALB/c athymic nude mice; details: HT29 xenograft in nude mice, 5 mg/kg/day, i.p., 20 days
Description: HT29 colon cancer xenograft model is a generally accepted in vivo cancer model and the formed tumor grows very aggressively. […] In the experiment, HT29 xenografts were established in ovariectomized 5- to 6-week-old BALB/c athymic nude mice (Case Western Reserve University animal facility). When tumors reach 150-200 mm^3 (i.e., in 2-4 weeks), the animals are randomly allocated (n=3 per group) to be treated with the compounds or vehicle (1% Tween 80) administered via i.p. Tumor growth was assessed and tumor weights were measured at the end of the experiment after the mice were killed. The animal care was in accordance with institutional guidelines.

NCI/ADR-RES = experiment: NCIDTP 60 cancer cell lines screening, Ovarian Cancer panel; format: cell-based
786-0 = experiment: NCIDTP 60 cancer cell lines screening, Renal Cancer panel; format: cell-based
A498 = experiment: as above; format: cell-based
K-562 = experiment: NCIDTP 60 cancer cell lines screening, Leukemia panel; format: cell-based
HCT-15 = experiment: NCIDTP 60 cancer cell lines screening, Colon Cancer panel; format: cell-based
IGROV1 = experiment: NCIDTP 60 cancer cell lines screening, Ovarian Cancer panel; format: cell-based
SNB-19 = experiment: NCIDTP 60 cancer cell lines screening, CNS Cancer panel; format: cell-based

Cc1ccc(C)c(COc2cc(NC(=O)c3ccc4c(c3)OCO4)ccc2N(C)S(C)(=O)=O)c1 [Compound #10, Benzo[1,3]dioxole-5-carboxylic acid [3-(2,5-dimethyl-benzyloxy)-4-(methanesulfonyl-methyl-amino)-phenyl]-amide]
CC50 (OVCAR-4; Homo sapiens, OVCAR-4, read-out: LC50): > 100000 nM
TGI (OVCAR-4; OVCAR-4): >1.00E−4 Molar
Percent Growth (OVCAR-4; OVCAR-4, Log10 Concentration −4.0 Molar): 56%
Percent Growth (OVCAR-4; OVCAR-4, Log10 Concentration −5.0 Molar): 47%
Percent Growth (OVCAR-4; OVCAR-4, Log10 Concentration −6.0 Molar): 54%
Percent Growth (OVCAR-4; OVCAR-4, Log10 Concentration −7.0 Molar): 90%
Percent Growth (OVCAR-4; OVCAR-4, Log10 Concentration −8.0 Molar): 87%
tumor growth [1]: significantly inhibited the tumor growth
TGI (NCI/ADR-RES): 4.07E−7 Molar
GI50 (NCI/ADR-RES; Homo sapiens): 56.2 nM
CC50 (NCI/ADR-RES; Homo sapiens, read-out: LC50): > 100000 nM
Percent Growth (NCI/ADR-RES; Log10 Concentration −4.0 Molar): −20%
Percent Growth (NCI/ADR-RES; Log10 Concentration −5.0 Molar): −12%
Percent Growth (NCI/ADR-RES; Log10 Concentration −6.0 Molar): −22%
Percent Growth (NCI/ADR-RES; Log10 Concentration −7.0 Molar): 34%
Percent Growth (NCI/ADR-RES; Log10 Concentration −8.0 Molar): 98%
TGI (786-0; 786-0): 1.11E−6 Molar
Percent Growth (786-0; 786-0, Log10 Concentration −4.0 Molar): −14%
Percent Growth (786-0; 786-0, Log10 Concentration −5.0 Molar): −22%
Percent Growth (786-0; 786-0, Log10 Concentration −6.0 Molar): 1%
Percent Growth (786-0; 786-0, Log10 Concentration −7.0 Molar): 69%
Percent Growth (786-0; 786-0, Log10 Concentration −8.0 Molar): 91%
GI50 (786-0; Homo sapiens, 786-0): 191 nM
CC50 (786-0; Homo sapiens, 786-0, read-out: LC50): > 100000 nM
TGI (A498; A498): 8.53E−7 Molar
Percent Growth (A498; A498, Log10 Concentration −4.0 Molar): −5%
Percent Growth (A498; A498, Log10 Concentration −5.0 Molar): −7%
Percent Growth (A498; A498, Log10 Concentration −6.0 Molar): −4%
Percent Growth (A498; A498, Log10 Concentration −7.0 Molar): 55%
Percent Growth (A498; A498, Log10 Concentration −8.0 Molar): 86%
GI50 (A498; Homo sapiens, A498): 122 nM
CC50 (A498; Homo sapiens, A498, read-out: LC50): > 100000 nM
CC50 (K-562; Homo sapiens, K562, read-out: LC50): > 100000 nM
GI50 (K-562; Homo sapiens, K562, K-562): 40.3 nM
TGI (K-562; K-562): >1.00E−4 Molar
Percent Growth (K-562; K-562, Log10 Concentration −4.0 Molar): 9%
Percent Growth (K-562; K-562, Log10 Concentration −5.0 Molar): 9%
Percent Growth (K-562; K-562, Log10 Concentration −6.0 Molar): 11%
Percent Growth (K-562; K-562, Log10 Concentration −7.0 Molar): 20%
Percent Growth (K-562; K-562, Log10 Concentration −8.0 Molar): 96%
TGI (HCT-15; HCT-15): >1.00E−4 Molar
Percent Growth (HCT-15; HCT-15, Log10 Concentration −4.0 Molar): 17%
Percent Growth (HCT-15; HCT-15, Log10 Concentration −5.0 Molar): 17%
Percent Growth (HCT-15; HCT-15, Log10 Concentration −6.0 Molar): 22%
Percent Growth (HCT-15; HCT-15, Log10 Concentration −7.0 Molar): 74%
Percent Growth (HCT-15; HCT-15, Log10 Concentration −8.0 Molar): 96%
GI50 (HCT-15; Homo sapiens, HCT-15): 289 nM
CC50 (HCT-15; Homo sapiens, HCT-15, read-out: LC50): > 100000 nM
CC50 (IGROV1; Homo sapiens, IGROV-1, read-out: LC50): > 100000 nM
GI50 (IGROV1; Homo sapiens, IGROV-1, IGROV1): 237 nM
TGI (IGROV1; IGROV1): >1.00E−4 Molar
Percent Growth (IGROV1; IGROV1, Log10 Concentration −4.0 Molar): 13%
Percent Growth (IGROV1; IGROV1, Log10 Concentration −5.0 Molar): 13%
Percent Growth (IGROV1; IGROV1, Log10 Concentration −6.0 Molar): 18%
Percent Growth (IGROV1; IGROV1, Log10 Concentration −7.0 Molar): 69%
Percent Growth (IGROV1; IGROV1, Log10 Concentration −8.0 Molar): 92%
GI50 (SNB-19; Homo sapiens, SNB-19): 537 nM
CC50 (SNB-19; Homo sapiens, SNB-19, read-out: LC50): > 100000 nM
TGI (SNB-19; SNB-19): >1.00E−4 Molar
